Experimental data taken from patent US12016833B2 (ACEBiomed, Inc., priority 2020, dated 2024).
Read-outs that look alike come from different tables or passages of the source.

Key:
[1] = system: ACC; details: rat AML12 liver cell line; drug treatment for 7 hours; FIG. 7
[2] = system: obesity-induced rats; details: HFD rats
Protocol: (§1) The drugs were administered with a high fat diet for a total of 6 weeks, and administered by oral gavage 3 times a week.

[3] = system: AMPK; details: drug treatment for 7 hours; FIG. 7
[4] = system: obesity-induced rats; details: HFD rats; remark: listed apart in the source
Protocol: as §1

[5] = HFD rats; colchicine (10 μg/kg) alone or colchicine (10 μg/kg)/metformin (50 mg/kg), oral gavage 3 times a week, 6 weeks; FIG. 2
Protocol: as §1

[6] = system: ACC; details: HFD rats; colchicine 100 μg/kg alone or with metformin 100 mg/kg; FIG. 6
Protocol: as §1

[7] = system: obesity-induced rats; test: Anatomical test of liver cross-sections by H&E staining; assay type: in vivo; details: HFD rats; colchicine 100 μg/kg alone or with metformin 100 mg/kg; FIG. 4
From the text: For the anatomical test of the cross-sections of the livers of the rats, H&E staining was applied, and the results were shown in FIG. 4.

[8] = system: obesity-induced rats; details: HFD rats; remark: listed apart in the source
Protocol: as §1

[9] = system: obesity-induced rats; test: Fat accumulated in liver tissue, oil red O staining; assay type: in vivo; details: HFD rats; FIG. 5
From the text: In addition, in order to examine a quantitative change of fat accumulated in the liver tissues of the rats, the fat was confirmed by staining using an oil red O method, and the results were shown in FIG. 5.

[10] = system: AMPK; details: HFD rats; colchicine 100 μg/kg alone or with metformin 100 mg/kg; FIG. 6
Protocol: as §1

[11] = colchicine 10 μg/kg alone, Table 3
[12] = colchicine 50 μg/kg alone, Table 3
[13] = colchicine 100 μg/kg alone, Table 3
[14] = colchicine 100 μg/kg alone, Table 4
[15] = colchicine 200 μg/kg alone, Table 3
[16] = colchicine 10 μg/kg alone, Table 1
[17] = colchicine 50 μg/kg alone, Table 1
[18] = colchicine 100 μg/kg alone, Table 1
[19] = colchicine 100 μg/kg alone, Table 2
[20] = colchicine 200 μg/kg alone, Table 1

For `COc1cc2c(c(OC)c1OC)-c1ccc(OC)c(=O)cc1[C@@H](NC(C)=O)CC2` [Colchicine], the “activation of ACC” value [1] was “increased”, the ALT [2, 11] was 1742.57 ± 102.71 U/L and the AST [2, 11] was 1766.90 ± 90.48 U/L. It also gave a Total protein [2, 11] of 5.07 ± 0.30 g/dL, an ALT [2, 12] of 1602.38 ± 61.31 U/L and an AST [2, 12] of 1759.49 ± 61.71 U/L. For the same compound, the Total protein [2, 12] was 5.21 ± 0.33 g/dL, the ALT [2, 13] was 1466.48 ± 49.34 U/L and the AST [2, 13] was 1614.70 ± 78.28 U/L. The Total protein [2, 13] was 5.24 ± 0.13 g/dL, the ALT [2, 14] was 1508.64 ± 102.38 U/L and the AST [2, 14] was 1574.22 ± 75.98 U/L. For the same compound, the Total protein [2, 14] was 5.13 ± 0.22 g/dL, the ALT [2, 15] was 1735.40 ± 86.49 U/L and the AST [2, 15] was 1833.70 ± 131.74 U/L. The Total protein [2, 15] was 5.09 ± 0.32 g/dL, the “activation of AMPK” value [3] was “increased” and the Hydroxyproline ([4]; colchicine 10 μg/kg alone, Table 5) was 345.28 ± 8.14 μg/g of liver. For the same compound, the Hydroxyproline ([4]; colchicine 50 μg/kg alone, Table 5) was 326.46 ± 14.55 μg/g of liver, the Hydroxyproline ([4]; colchicine 100 μg/kg alone, Table 5) was 308.13 ± 5.04 μg/g of liver and the Hydroxyproline ([4]; colchicine 100 μg/kg alone, Table 6) was 316.68 ± 13.36 μg/g of liver. The “change in weights of the whole rats” value [5] was “no significant change”, the “activation of ACC in liver tissues” value [6] was “partially recovered” and the “steatosis in the liver tissues (H&E staining)” value [7] was “reduced”. The Ballooning degeneration ([8]; FIG. 3) was “reduced”, the Portal inflammation ([8]; FIG. 3) was “reduced” and the macrovesicular steatosis ([8]; FIG. 3) was “no effect”. The microvesicular steatosis ([8]; FIG. 3) was “reduced”, the Ballooning degeneration [8, 16] was 2 and the Fatty necrosis [8, 16] was 3. It also gave a Fibrosis [8, 16] of 3, a Portal inflammation [8, 16] of 2 and a Total score [8, 16] of 10. The Ballooning degeneration [8, 17] was 2, the Fatty necrosis [8, 17] was 2 and the Fibrosis [8, 17] was 2. It also gave a Portal inflammation [8, 17] of 2, a Total score [8, 17] of 8 and a Ballooning degeneration [8, 18] of 1. For the same compound, the Fatty necrosis [8, 18] was 2, the Fibrosis [8, 18] was 1 and the Portal inflammation [8, 18] was 1. The Total score [8, 18] was 5, the Ballooning degeneration [8, 19] was 1 and the Fatty necrosis [8, 19] was 2. For the same compound, the Fibrosis [8, 19] was 1, the Portal inflammation [8, 19] was 2 and the Total score [8, 19] was 6. The Ballooning degeneration [8, 20] was 2, the Fatty necrosis [8, 20] was 2 and the Fibrosis [8, 20] was 1. For the same compound, the Portal inflammation [8, 20] was 2, the Total score [8, 20] was 7 and the “fat accumulation in the liver tissues (oil red O)” value [9] was “reduced”. For the same compound, the “activation of AMPK in liver tissues” value [10] was “partially recovered”.
